Measured values taken from ChEMBL document CHEMBL1123826, “Nitrogen bridgehead compounds. 66. Bronchodilator nitrogen bridgehead compounds with a pyrimidinone moiety” (J Med Chem, 1987).

Tests used:
[1] = organism: Cavia porcellus; assay: Compound was tested for Bronchodilator activity against acetylcholine-induced spasm in guinea pig by Konzett-Rossler test; type: organism-based; details: in vivo
[2] = organism: Cavia porcellus; assay: Bronchodilator activity against histamine-induced spasm in guinea pig; type: functional; details: read-out: ID50 (the source's name)
[3] = organism: Cavia porcellus; assay: Bronchodilator activity against serotonin-induced spasm in guinea pig; type: functional; details: read-out: ID50 (the source's name)
[4] = organism: Cavia porcellus; assay: […] activity was evaluated by inhibition of BaCl2 induced spasm in isolated guinea pig ileum; type: functional
[5] = organism: Cavia porcellus; assay: […] activity was evaluated by inhibition of acetylcholine induced spasm in isolated guinea pig ileum; type: functional
[6] = organism: Cavia porcellus; assay: […] activity was evaluated by inhibition of histamine induced spasm in isolated guinea pig ileum; type: functional
[7] = organism: Cavia porcellus; assay: […] activity was evaluated by inhibition of nicotinate induced spasm in isolated guinea pig ileum; type: functional
[8] = organism: Cavia porcellus; assay: Compound was tested for Anticholenergic activity on isolated guinea pig trachea contracted by carbachol; type: functional; details: for Kb: read-out: pA2 (converted)
[9] = organism: Homo sapiens; assay: Compound was tested for Bronchodilator activity against isolated human bronchus contracted by carbachol; type: functional
[10] = Ratio of pA2 to pD2 was determined on isolated guinea pig trachea; type: functional
[11] = Relative potency is ratio of IC50 of theophylline / IC50 was determined; type: functional
[12] = organism: Cavia porcellus; assay: […] activity was evaluated by inhibition of serotonin induced spasm in isolated guinea pig ileum; type: functional
[13] = test system: Cavia porcellus; assay: Compound was tested for Bronchodilator activity against acetylcholine-induced spasm in guinea pig by Konzett-Rossler tes; dose administered by intraduodenal route.; type: functional; details: read-out: ID50 (the source's name)
[14] = test system: Cavia porcellus; assay: Compound was tested for Bronchodilator activity against histamine-induced spasm in guinea pig by Konzett-Rossler test; dose administered by intraduodenal route.; type: functional; details: read-out: ID50 (the source's name)
[15] = test system: Cavia porcellus; assay: Compound was tested for Bronchodilator activity against serotonin-induced spasm in guinea pig by Konzett-Rossler test; dose administered by intraduodenal route.; type: functional; details: read-out: ID50 (the source's name)
[16] = organism: Cavia porcellus; assay: Bronchodilator activity against acetylcholine-induced spasm in guinea pig; type: functional; details: read-out: ID50 (the source's name)
[17] = organism: Homo sapiens; assay: compound was tested for Bronchodilator activity against isolated human bronchus contracted by carbachol; type: functional
[18] = test system: Cavia porcellus; assay: Compound was tested for Bronchodilator activity against acetylcholine-induced spasm in guinea pig by Konzett-Rossler test; dose administered by intraduodenal route.; type: functional; details: read-out: ID50 (the source's name)
[19] = test system: Cavia porcellus; assay: Compound was tested for Bronchodilator activity against serotonin-induced spasm in guinea pig by Konzett-Rossler test; dose administered by intraduodenal route; type: functional; details: read-out: ID50 (the source's name)
[20] = Relative potency calculated from ratio of IC50 of theophylline / IC50 was determined; type: functional
[21] = Homo sapiens, Bronchus, read-out: IC50

| SMILES | ED50 [2] [µmol/kg] | ED50 [3] [µmol/kg] | Relative potency [11] | ED50 [14] [µmol/kg] | ED50 [15] [µmol/kg] | ED50 [16] [µmol/kg] | ED50 [18] [µmol/kg] | also measured |
| --- | --- | --- | --- | --- | --- | --- | --- | --- |
| O=c1nc2n(c3c1CCCCC3)CCC2 | > 32 | > 32 | – | – | – | – | – | ID50 [1]: > 32 µM/kg |
| O=c1c2c(nc3n1CCCCC3)CCC2 | – | – | 9.93 | – | – | – | – | IC50 [4]: 113 uM l-1; IC50 [5]: 2.53 µM; IC50 [6]: > 100 µM; IC50 [7]: 75 µM; pD2 [8]: 5.37; Kb [8]: 229 nM; IC50 [9]: 15.2 µM; Ratio [10]: 1.23; IC50 [12]: 112 uM l-1 |
| CC1CCCCc2nc3c(c(=O)n21)CCCC3 (stereo not drawn) | – | – | – | > 320 | > 320 | – | – | ED50 [13]: > 320 µmol/kg |
| CCc1c(C)nc2n(c1=O)CCC(C)C2 (stereo not drawn) | 23.2 | 18.4 | 2.02 | – | – | 28.2 | – | IC50 [17, 21]: 74.6 µM |
| Cl.O=c1c2c(nc3n1CCCCC3)CCCC2 | – | – | – | – | – | – | – | IC50 [4]: 123 uM l-1; IC50 [5]: 5.01 µM; IC50 [6]: > 100 µM; IC50 [7]: 49.5 µM; pD2 [8]: 5.39; Kb [8]: 1910 nM; IC50 [9]: 5.4 µM; Ratio [10]: 1.06; IC50 [12]: 752 uM l-1 |
| CC1CCCCn2c1nc1c(c2=O)CCCC1 (stereo not drawn) | – | – | – | > 320 | > 320 | – | > 320 | – |
| CC1CCn2c(nc3c(c2=O)CCC3)C1 (stereo not drawn) | 18.9 | 22.5 | 1.07 | – | – | 56.4 | – | IC50 [17]: 141 uM l-1 |
| COC(=O)c1ccc2nc3n(c(=O)c2c1)CCCCC3 | – | – | – | 32 | 32 | – | > 32 | – |
| CCOC(=O)c1ccc2c(=O)n3c(nc2c1)CCCCC3 | – | – | – | 32 | – | – | 24.5 | ED50 [19]: 10 µmol/kg |
| O=c1c2c(nc3n1CCCCC3)CCCC2 | – | – | – | – | – | – | – | Relative potency [20]: 28 |
| Cc1cccc2c(=O)n3c(nc12)CCCCC3 | – | – | – | > 32 | > 32 | – | > 32 | – |
| Cc1cccn2c(=O)c3c(nc12)CCCC3 | 7 | 15.6 | 2.26 | – | – | 15.7 | – | IC50 [17, 21]: 66.6 µM |
| Cc1cccn2c(=O)c3c(nc12)CCC3 | 10.2 | 11.2 | 1.54 | – | – | 21.6 | – | IC50 [9, 21]: 97.7 µM |
